This passage reports EC50 and MIC results from patent US20230114728A1 (Venatorx Pharmaceuticals, Inc., priority 2019, published 2023).

In brackets after ≈: the same amount, converted by molar mass.

Biological target in the first assay: not listed separately
Put plainly: Bocillin-FL fluorescence polarization competition binding assay, A. baumannii PBP3. Conditions: fluorescence polarization competition binding assay using Bocillin-FL; column 3; read-out: 4. baumannii PBP1a Potency. A digest of the protocol:
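Fluorescence polarization (ex 490/em 520 nm) competition of inhibitors against Bocillin-FL at 0.1 μM, read up to 60 min. Final PBP levels: E. coli PBP3 1.5 μM; A. baumannii PBP2 2.5 μM, PBP3 0.2 μM in Tris pH 8.0/NaCl/glycerol/Tween 20; N. gonorrhoeae PBP2 […] in Hepes pH 8.0/NaCl/glycerol. EC50 = concentration halving PBP-bound Bocillin-FL.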
As for `NCCN1CCN(C(=O)N[C@@H](C(=O)N[C@H]2Cc3ccc(F)c(C(=O)O)c3OB2O)c2c(F)cc(O)c(O)c2Cl)C(=O)C1=O` (single isomer, unassigned) [Example 26], the EC50 lay in the range of 30 to 100 µM.

On to `NCCCN1CCN(C(=O)N[C@@H](C(=O)N[C@H]2Cc3ccc(F)c(C(=O)O)c3OB2O)c2c(F)cc(O)c(O)c2Cl)C(=O)C1=O` (single isomer, unassigned) [Example 27], for which the EC50 was in the range of 30 to 100 µM.

`O=C(O)c1c(F)ccc2c1OB(O)[C@@H](NC(=O)[C@H](NC(=O)N1CCNC1=O)c1c(F)cc(O)c(O)c1Cl)C2` (single isomer, unassigned) [Example 34]: the EC50 was over 100 µM.

With `CS(=O)(=O)N1CCN(C(=O)N[C@@H](C(=O)N[C@H]2Cc3ccc(F)c(C(=O)O)c3OB2O)c2c(F)cc(O)c(O)c2Cl)C1=O` (single isomer, unassigned) [Example 35], the EC50 was in the range of 30 to 100 µM.

For the compound `NCCN1CCN(C(=O)N[C@@H](C(=O)N[C@H]2Cc3ccc(F)c(C(=O)O)c3OB2O)c2c(F)cc(O)c(O)c2F)C(=O)C1=O` (single isomer, unassigned) [Example 40], the EC50 is over 100 µM.

As for `NCCCN1CCN(C(=O)N[C@@H](C(=O)N[C@H]2Cc3ccc(F)c(C(=O)O)c3OB2O)c2c(F)cc(O)c(O)c2F)C(=O)C1=O` (single isomer, unassigned) [Example 41], the EC50 was in the range of 30 to 100 µM.

`NCCN1CCN(C(=O)N[C@@H](C(=O)N[C@H]2Cc3cccc(C(=O)O)c3OB2O)c2ccc(C(=O)O)cc2)C(=O)C1=O` (single isomer, unassigned) [Example 84]: the EC50 was 30 to 100 µM.

Regarding `O=C(O)c1ccc(C(NC(=O)c2ccc(O)c(O)c2Cl)C(=O)N[C@H]2Cc3cccc(C(=O)O)c3OB2O)cc1F` (stereo partly drawn) [Example 7, (3R)-3-(2-(4-carboxy-3-fluorophenyl)-2-(2-chloro-3,4-dihydroxybenzamido)acetamido)-2-hydroxy-3,4-dihydro-2H-benzo[e][1,2]oxaborinine-8-carboxylic acid], the EC50 is over 100 µM.

For the compound `O=C(NC(C(=O)N[C@H]1Cc2ccc(F)c(C(=O)O)c2OB1O)c1ncc(O)cc1F)c1ccc(O)c(O)c1Cl` (stereo partly drawn) [Example 8, (3R)-3-(2-(2-chloro-3,4-dihydroxybenzamido)-2-(3-fluoro-5-hydroxypyridin-2-yl)acetamido)-7-fluoro-2-hydroxy-3,4-dihydro-2H-benzo[e][1,2]oxaborinine-8-carboxylic acid], the EC50 is over 100 µM.

Take `O=C(Nc1ccc(O)c(O)c1Cl)NC(C(=O)N[C@H]1Cc2ccc(F)c(C(=O)O)c2OB1O)c1ncc(O)cc1F` (stereo partly drawn) [Example 9, (3R)-3-(2-(3-(2-chloro-3,4-dihydroxyphenyl)ureido)-2-(3-fluoro-5-hydroxypyridin-2-yl)acetamido)-7-fluoro-2-hydroxy-3,4-dihydro-2H-benzo[e][1,2]oxaborinine-8-carboxylic acid]: the EC50 was 30 to 100 µM.

For `CS(=O)(=O)N1CCN(C(=O)NC(C(=O)N[C@H]2Cc3ccc(F)c(C(=O)O)c3OB2O)c2ccc(O)c(O)c2Cl)C1=O` (stereo partly drawn) [Example 23, (3R)-3-(2-(2-chloro-3,4-dihydroxyphenyl)-2-(3-(methylsulfonyl)-2-oxoimidazolidine-1-carboxamido)acetamido)-7-fluoro-2-hydroxy-3,4-dihydro-2H-benzo[e][1,2]oxaborinine-8-carboxylic acid], the EC50 lay in the range of 30 to 100 µM.

Regarding `NC(C(=O)N[C@H]1Cc2ccc(F)c(C(=O)O)c2OB1O)c1c(F)cc(O)c(O)c1Cl` (stereo partly drawn) [Example 25, (3R)-3-(2-amino-2-(2-chloro-6-fluoro-3,4-dihydroxyphenyl)acetamido)-7-fluoro-2-hydroxy-3,4-dihydro-2H-benzo[e][1,2]oxaborinine-8-carboxylic acid], the EC50 is over 100 µM.

Consider `CCN1CCN(C(=O)NC(C(=O)N[C@H]2Cc3ccc(F)c(C(=O)O)c3OB2O)c2c(F)cc(O)c(O)c2F)C(=O)C1=O` (stereo partly drawn) [Example 36, (3R)-3-(2-(2,6-difluoro-3,4-dihydroxyphenyl)-2-(4-ethyl-2,3-dioxopiperazine-1-carboxamido)acetamido)-7-fluoro-2-hydroxy-3,4-dihydro-2H-benzo[e][1,2]oxaborinine-8-carboxylic acid], for which the EC50 is 10 to 30 µM.

Consider `O=C(O)c1c(F)ccc2c1OB(O)[C@@H](NC(=O)C(NC(=O)N1CCN(CCF)C(=O)C1=O)c1c(F)cc(O)c(O)c1F)C2` (stereo partly drawn) [Example 37, (3R)-3-(2-(2,6-difluoro-3,4-dihydroxyphenyl)-2-(4-(2-fluoroethyl)-2,3-dioxopiperazine-1-carboxamido)acetamido)-7-fluoro-2-hydroxy-3,4-dihydro-2H-benzo[e][1,2]oxaborinine-8-carboxylic acid], for which the EC50 fell in the range of 30 to 100 µM.

`O=C(O)c1c(F)ccc2c1OB(O)[C@@H](NC(=O)C(NC(=O)N1CCN(CCBr)C(=O)C1=O)c1c(F)cc(O)c(O)c1F)C2` (stereo partly drawn) [Example 38, (3R)-3-(2-(4-(2-bromoethyl)-2,3-dioxopiperazine-1-carboxamido)-2-(2,6-difluoro-3,4-dihydroxyphenyl)acetamido)-7-fluoro-2-hydroxy-3,4-dihydro-2H-benzo[e][1,2]oxaborinine-8-carboxylic acid]: the EC50 lay within 10 to 30 µM.

As for `NCCCN1CCN(C(=O)NC(C(=O)N[C@H]2Cc3cccc(C(=O)O)c3OB2O)c2ccc(C(=O)O)cc2)C(=O)C1=O` (stereo partly drawn) [Example 39, (3R)-3-(2-(4-(3-aminopropyl)-2,3-dioxopiperazine-1-carboxamido)-2-(4-carboxyphenyl)acetamido)-2-hydroxy-3,4-dihydro-2H-benzo[e][1,2]oxaborinine-8-carboxylic acid], the EC50 lay within 30 to 100 µM.

As to `CCN1CCN(C(=O)NC(C(=O)N[C@H]2Cc3ccc(F)c(C(=O)O)c3OB2O)c2cc(F)c(O)c(O)c2Cl)C(=O)C1=O` (stereo partly drawn) [Example 42, (3R)-3-(2-(2-chloro-5-fluoro-3,4-dihydroxyphenyl)-2-(4-ethyl-2,3-dioxopiperazine-1-carboxamido)acetamido)-7-fluoro-2-hydroxy-3,4-dihydro-2H-benzo[e][1,2]oxaborinine-8-carboxylic acid], the EC50 fell in the range of 30 to 100 µM.

A further assay concerns N. gonorrhoeae WHO Z. Put plainly: Liquid broth MIC in Fastidious broth. The assay is classed as cell-based. Conditions: Neisseria gonorrhoeae, read-out: Minimum Inhibitory Concentration, N. gonorrhoeae WHO Z. The essentials: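 Colonies were swabbed from chocolate agar after 24 h growth and standardised by optical density at 600 nm. Compounds were serially diluted twofold in Fastidious broth, and bacteria added to give 5×10^5 CFU/mL. After about 24 h at 36 °C in 5% CO2, the lowest concentration allowing under 10% growth was taken as MIC.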
As for `NCCN1CCN(C(=O)N[C@@H](C(=O)N[C@H]2Cc3cccc(C(=O)O)c3OB2O)c2ccc(C(=O)O)cc2)C(=O)C1=O` (single isomer, unassigned) [Example 84], the MIC lay within 16 to 32 µg/mL (≈ 28.2 to 56.4 µM).

In the case of `NCCN1CCN(C(=O)N[C@@H](C(=O)N[C@H]2Cc3cccc(C(=O)O)c3OB2O)c2cc(Cl)c(O)cc2Cl)C(=O)C1=O` [Example 90, (R)-3-((R)-2-(4-(2-aminoethyl)-2,3-dioxopiperazine-1-carboxamido)-2-(2,5-dichloro-4-hydroxyphenyl)acetamido)-2-hydroxy-3,4-dihydro-2H-benzo[e][1,2]oxaborinine-8-carboxylic acid], the MIC is over 64 µg/mL.

Consider `NCCN1CCN(C(=O)NC(C(=O)N[C@H]2Cc3cccc(C(=O)O)c3OB2O)c2cc(F)c(O)cc2F)C(=O)C1=O` (stereo partly drawn) [Example 93, (3R)-3-(2-(4-(2-aminoethyl)-2,3-dioxopiperazine-1-carboxamido)-2-(2,5-difluoro-4-hydroxyphenyl)acetamido)-2-hydroxy-3,4-dihydro-2H-benzo[e][1,2]oxaborinine-8-carboxylic acid], for which the MIC is over 64 µg/mL.

Regarding `NCCN1CCN(C(=O)NC(C(=O)N[C@H]2Cc3cccc(C(=O)O)c3OB2O)c2c(F)cc(O)cc2Cl)C(=O)C1=O` (stereo partly drawn) [Example 94, (3R)-3-(2-(4-(2-aminoethyl)-2,3-dioxopiperazine-1-carboxamido)-2-(2-chloro-6-fluoro-4-hydroxyphenyl)acetamido)-2-hydroxy-3,4-dihydro-2H-benzo[e][1,2]oxaborinine-8-carboxylic acid], the MIC was over 64 µg/mL.

As to `CCN1CCN(C(=O)NC(C(=O)N[C@H]2Cc3cccc(C(=O)O)c3OB2O)c2c(F)cc(O)cc2Cl)C(=O)C1=O` (stereo partly drawn) [Example 95, (3R)-3-(2-(2-chloro-6-fluoro-4-hydroxyphenyl)-2-(4-ethyl-2,3-dioxopiperazine-1-carboxamido)acetamido)-2-hydroxy-3,4-dihydro-2H-benzo[e][1,2]oxaborinine-8-carboxylic acid], the MIC fell in the range of 16 to 32 µg/mL (≈ 27.7 to 55.5 µM).

Regarding `CCN1CCN(C(=O)NC(C(=O)N[C@H]2Cc3cccc(C(=O)O)c3OB2O)c2cccc(NC(=O)c3cncnc3)c2)C(=O)C1=O` (stereo partly drawn) [Example 96, (3R)-3-(2-(4-ethyl-2,3-dioxopiperazine-1-carboxamido)-2-(3-(pyrimidine-5-carboxamido)phenyl)acetamido)-2-hydroxy-3,4-dihydro-2H-benzo[e][1,2]oxaborinine-8-carboxylic acid], the MIC is over 64 µg/mL.

As for `CCN1CCN(C(=O)NC(C(=O)N[C@H]2Cc3cccc(C(=O)O)c3OB2O)c2cccc(NC(=O)c3cccnc3)c2)C(=O)C1=O` (stereo partly drawn) [Example 97, (3R)-3-(2-(4-ethyl-2,3-dioxopiperazine-1-carboxamido)-2-(3-(nicotinamido)phenyl)acetamido)-2-hydroxy-3,4-dihydro-2H-benzo[e][1,2]oxaborinine-8-carboxylic acid], the MIC was over 64 µg/mL.

For the compound `CCN1CCN(C(=O)NC(C(=O)N[C@H]2Cc3cccc(C(=O)O)c3OB2O)c2cccc(NS(N)(=O)=O)c2)C(=O)C1=O` (stereo partly drawn) [Example 98, (3R)-3-(2-(4-ethyl-2,3-dioxopiperazine-1-carboxamido)-2-(3-(sulfamoylamino)phenyl)acetamido)-2-hydroxy-3,4-dihydro-2H-benzo[e][1,2]oxaborinine-8-carboxylic acid], the MIC was 16 to 32 µg/mL (≈ 26.6 to 53.1 µM).

For `CCN1CCN(C(=O)NC(C(=O)N[C@H]2Cc3cccc(C(=O)O)c3OB2O)c2cccc(S(N)(=O)=O)c2)C(=O)C1=O` (stereo partly drawn) [Example 99, (3R)-3-(2-(4-ethyl-2,3-dioxopiperazine-1-carboxamido)-2-(3-sulfamoylphenyl)acetamido)-2-hydroxy-3,4-dihydro-2H-benzo[e][1,2]oxaborinine-8-carboxylic acid], the MIC was 16 to 32 µg/mL (≈ 27.2 to 54.5 µM).
